The target of experiment [1] is T1, pyk-2 protein kinase (Homo sapiens, UniProt Q14289).
T1 construct: made in house; host or cells: Schizosaccharomyces pombe strain SP200, pRSP expression plasmids
Briefly: Assay measuring PYK-2 protein kinase activity (phosphorylation of a biotinylated peptide). The conditions noted are these: pyk-2 from transformed yeast lysate, 5 μM ATP; for inhibition at 100 µM: compound at 100 μM; for IC50: cells without %. The format is biochemical. The procedure: This assay is used to determine pyk-2 protein kinase activity measuring phosphorylation of a biotinylated peptide as the readout.
a. Yeast transformed with pyk-2.
b. Cell lysates: Yeast cells expressing pyk-2 are pelleted, washed once with water, re-pelleted and stored at −80° C. until use.
c. N-terminus biotinylated […] is prepared by standard procedures well known to those skilled in the art.
h. […] S. Pombe strain SP200 (h-s leul.32 ura4 ade21O) was grown as described and transformations were pRSP expression plasmids were done by the lithium acetate method (Superti-Furga, supra). Cells were grown in the presence of 1 μM thiamine to repress expression from the nmtl promoter or in the absence of thiamine to induce expression.
a. Preparation of pyk-2 coated ELISA plate.
1. Coat ELISA plate with 0.5 μg/well anti-pyk-2 mab in 100 μL of pH 9.6 sodium carbonate buffer at 4° C. overnight.
2. Wash wells once with PBS.
3. Block plate with 0.15 mL 5% milk in PBS for 30 min. at room temperature.
4. Wash plate 5× with PBS.
5. Add 10 μg/well of pyk-2 transformed yeast lysates diluted in Lysis Buffer (0.1 mL total volume per well). (Amount of lysate may vary between hatches.) Shake plate for 20 minutes at room temperature.
b. Preparation of phosphotyrosine antibody-coated ELISA plate.
1. 4G10 plate: coat 0.5 μg/well 4G10 in 100 μL PBS overnight at 4° C. and block with 150 μL of 5% milk in PBS for 30 minutes at room temperature.
c. Kinase assay procedure.
1. Remove unbound proteins from steps 1-7, above, and wash plates 5× with PBS.
2. Add 0.08 mL Kinase Reaction Mixture per well (containing […] of 10×Kinase Buffer and 10 pM (final concentration) biotin-[…] per well diluted in water.
3. Add 10 μL of compound diluted in water containing 10% DMSO and pre-incubate for 15 minutes at room temperature.
4. Start kinase reaction by adding 10 μL/well of 0.05 mM ATP in water (5 μM ATP final).
5. Shake ELISA plate for 15 min. at room temperature.
6. Stop kinase reaction by adding 10 μL of 0.5 M EDTA per well.
7. Transfer 90 μL supernatant to a blocked 4G10 coated ELISA plate from section B, above.
8. Incubate for 30 min. while shaking at room temperature.
9. Wash plate 5× with TBST.
10. Incubate with Vectastain ELITE ABC reagent (100 μL/well) for 30 min. at room temperature.
11. Wash the wells 5× with TBST.
12. Develop with Turbo TMB.
(§1) The IC50 values were measured for several of the compounds of the invention.

Experiment [2] deals with T2, EGFR protein (Homo sapiens, UniProt P00533).
T2 construct: Add 120 μL TBS to ELISA plate containing captured EGFR; endogenous in cells; host or cells: A431 cells (lysate, captured with SUMO1 anti-EGFR antibody)
Nature of the experiment: ELISA assay measuring the kinase activity of the EGF receptor (captured from A431 cell lysate). The format is biochemical. The procedure:
The following protocol describes the reagents and procedures used to analyze protein tyrosine kinase activity on the EGFR protein.
2. SUMO1 monoclonal anti-EGFR antibody
All of the following steps are conducted at room temperature unless it is specifically indicated. All ELISA plate washing is by rinsing 4× with TBST.
1. Coat Corning 96 well ELISA plates with 0.5 μ/well of SUMO1 in a volume of 100 μL PBS. Store overnight at 4° C.
2. Remove unbound SUMO1 by inverting plate to remove liquid. Wash plates with distilled water. Pat plate on a paper towel to remove excess liquid and bubbles
3. Add 150 μL of Blocking Buffer to each well. Incubate while shaking on a microliter plate shaker at room temperature for 30 min.
4. Wash 3× with deionized water, then once with TBST. Pat plate on a paper towel to remove excess liquid and bubbles.
5. Dilute lysate in PBS (7 μg of lysate/100 μL of PBS).
6. Add 100 μL of diluted lysate to each well. Shake at room temperature for 60 min.
7. Wash as described in step 4.
8. Add 120 μL TBS to ELISA plate containing captured EGFR.
9. Dilute drugs/extracts 1:10 (unless specified otherwise) in TBS in 96-well polypropylene plates.
10. Add 13.5 μL diluted drugs/extracts to ELISA plate.
11. Incubate for 30 minutes while shaking at room temperature.
12. […] Incubate while shaking on a micro-liter plate shaker at room temperature for 5 min.
13. Stop Kinase reaction with the addition of 16.5 μL of 200 mM EDTA pH 8.0 to all wells.
14. Wash 4× with deionized water and twice with TBST.
15. Add 100 μL per well of anti-phosphotyrosine (1:3000 dilution in TBST). Incubate while shaking on a micro-liter plate shaker 30-45 minutes at room temperature while shaking.
16. Wash as described in step 4.
17. Add 100 μL per well of biosource Goat anti-rabbit IgG peroxidase conjugate (1:2000 dilution in TBST). Incubate 30 min. at room temperature while shaking.
18. Wash as described in step 4.
19. Add 100 μL of ABTS/H2O2 solution to each well.
20. Incubate 5 to 15 minutes while shaking. Remove any bubbles.
21. If necessary stop reaction with the addition of 10 μL of 0.2 M HCl/well.
22. Read assay on Dynatech MR7000 ELISA Plate Reader.
as §1
A general note: An ELISA detects its analyte on a solid surface through an enzyme-linked reagent.

The structures appear in SMILES notation. Where “and” joins values, the source holds several entries; their conditions need not be identical. Equal entries are not always repeated.

This note sets out measurements from patent US6680335B2, “Methods of modulating protein tyrosine kinase function with substituted indolinone compounds” (Sugen, Inc., priority 1998, dated 2004).

T2 sequence (P00533 25-1210): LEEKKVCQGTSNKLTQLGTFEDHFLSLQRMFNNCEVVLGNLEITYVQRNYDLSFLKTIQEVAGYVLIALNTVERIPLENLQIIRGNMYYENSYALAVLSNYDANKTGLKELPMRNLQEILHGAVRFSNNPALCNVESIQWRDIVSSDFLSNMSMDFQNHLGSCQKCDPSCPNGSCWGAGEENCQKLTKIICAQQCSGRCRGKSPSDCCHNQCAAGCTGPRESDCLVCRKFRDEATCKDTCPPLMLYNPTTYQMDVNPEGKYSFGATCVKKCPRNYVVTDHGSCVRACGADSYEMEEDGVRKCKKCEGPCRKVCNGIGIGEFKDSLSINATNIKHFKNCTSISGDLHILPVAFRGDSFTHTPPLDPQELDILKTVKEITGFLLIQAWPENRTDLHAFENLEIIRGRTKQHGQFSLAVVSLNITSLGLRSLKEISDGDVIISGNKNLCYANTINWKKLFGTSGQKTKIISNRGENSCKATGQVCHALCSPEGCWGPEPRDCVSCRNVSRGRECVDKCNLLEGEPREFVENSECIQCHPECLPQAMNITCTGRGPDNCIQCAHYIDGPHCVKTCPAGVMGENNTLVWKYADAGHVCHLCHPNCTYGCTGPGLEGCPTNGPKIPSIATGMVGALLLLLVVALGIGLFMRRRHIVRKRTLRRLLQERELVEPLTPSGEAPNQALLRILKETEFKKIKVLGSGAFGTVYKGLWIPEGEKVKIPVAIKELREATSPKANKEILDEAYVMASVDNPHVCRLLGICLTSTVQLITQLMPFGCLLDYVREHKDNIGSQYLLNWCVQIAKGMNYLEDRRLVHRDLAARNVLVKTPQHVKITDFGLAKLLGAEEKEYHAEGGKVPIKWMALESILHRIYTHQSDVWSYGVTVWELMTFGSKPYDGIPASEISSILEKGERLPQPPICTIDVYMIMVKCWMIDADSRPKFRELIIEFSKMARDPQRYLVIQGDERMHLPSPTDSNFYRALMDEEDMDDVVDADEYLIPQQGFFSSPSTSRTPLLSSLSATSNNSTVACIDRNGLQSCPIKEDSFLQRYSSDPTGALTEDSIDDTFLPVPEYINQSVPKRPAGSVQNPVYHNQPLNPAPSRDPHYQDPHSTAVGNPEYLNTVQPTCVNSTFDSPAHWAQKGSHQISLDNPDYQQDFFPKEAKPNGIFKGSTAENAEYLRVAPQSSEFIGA
T1 sequence (Q14289 whole entry): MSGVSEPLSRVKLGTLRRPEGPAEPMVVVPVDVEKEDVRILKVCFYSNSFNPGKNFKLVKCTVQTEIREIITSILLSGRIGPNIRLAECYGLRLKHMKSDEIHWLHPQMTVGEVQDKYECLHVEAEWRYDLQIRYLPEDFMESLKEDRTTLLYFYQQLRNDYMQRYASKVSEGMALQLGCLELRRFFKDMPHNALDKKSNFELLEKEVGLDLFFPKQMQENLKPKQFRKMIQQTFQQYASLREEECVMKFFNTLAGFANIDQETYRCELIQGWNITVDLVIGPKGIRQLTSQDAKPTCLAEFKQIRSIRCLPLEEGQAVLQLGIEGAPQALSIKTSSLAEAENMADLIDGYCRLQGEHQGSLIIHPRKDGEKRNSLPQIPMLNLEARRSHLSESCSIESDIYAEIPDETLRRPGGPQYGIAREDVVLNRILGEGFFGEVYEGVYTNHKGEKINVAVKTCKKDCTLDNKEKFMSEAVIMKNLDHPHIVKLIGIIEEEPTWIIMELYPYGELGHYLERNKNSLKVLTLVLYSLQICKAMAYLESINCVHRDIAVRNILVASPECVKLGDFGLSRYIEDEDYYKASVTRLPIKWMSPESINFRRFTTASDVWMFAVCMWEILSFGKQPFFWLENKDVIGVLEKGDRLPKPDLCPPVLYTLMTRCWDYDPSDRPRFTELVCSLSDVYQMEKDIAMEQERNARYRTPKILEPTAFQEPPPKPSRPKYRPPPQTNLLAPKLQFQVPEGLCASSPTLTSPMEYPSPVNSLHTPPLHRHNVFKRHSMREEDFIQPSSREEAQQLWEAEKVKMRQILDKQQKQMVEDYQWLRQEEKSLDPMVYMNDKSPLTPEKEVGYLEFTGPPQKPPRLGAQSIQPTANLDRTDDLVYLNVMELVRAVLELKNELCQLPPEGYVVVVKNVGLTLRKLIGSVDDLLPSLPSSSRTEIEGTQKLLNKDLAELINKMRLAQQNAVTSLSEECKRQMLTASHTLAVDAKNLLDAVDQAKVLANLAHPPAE

As usually defined, the inhibition is the drop in the measured response relative to a control, in per cent. The IC50 is the point on the concentration scale where inhibition reaches its midpoint. On to `Cc1c(/C=C2\C(=O)Nc3ccc(S(N)(=O)=O)cc32)[nH]c2ccccc12` [IN-002, 3-(3-Methyl-1H-indol-2-ylmethylene)-2-oxo-2,3-dihydro-1H-indole-5-sulfonic acid amide], for which the inhibition at 100 µM in experiment [1] was 46.7%. This compound also gave an IC50 in experiment [2] greater than 100 µM.
In the case of `Cc1c(/C=C2\C(=O)Nc3ccccc32)[nH]c2ccccc12` [IN-016, 3-(3-Methyl-1H-indol-2-ylmethylene)-1,3-dihydro-indol-2-one], the inhibition at 100 µM in experiment [1] was -12.5%. In experiment [2], the IC50 is greater than 100 µM.
Regarding `CC(=O)c1ccc2c(c1)C(=Cc1cc3ccccc3[nH]1)C(=O)N2` [IN-007, 5-Acetyl-3-(1H-indol-2-ylmethylene)-1,3-dihydro-indol-2-one], the inhibition at 100 µM in experiment [1] turned out to be 17.9%. Besides, the IC50 in experiment [2] is greater than 100 µM.
With `O=C1Nc2cc(Cl)ccc2/C1=C/c1cc2ccccc2[nH]1` [IN-011, 6-Chloro-3-(1H-indol-2-ylmethylene)-1,3-dihydro-indol-2-one], in experiment [1], the inhibition at 100 µM is 7.4%. Further, the IC50 in experiment [2] was greater than 100 µM.
Consider `O=C1Nc2ccc(Cl)cc2/C1=C/c1cc2ccccc2[nH]1` [IN-013, 5-chloro-3-(1H-indol-2-ylmethylene)-1,3-dihydro-indol-2-one], for which, in experiment [1], the inhibition at 100 µM was -12%. For the same compound, in experiment [2], the IC50 is greater than 100 µM.
Turning to `NS(=O)(=O)c1ccc2c(c1)/C(=C/c1cc3ccccc3[nH]1)C(=O)N2` [IN-008, 3-(1H-Indol-2-ylmethylene)-2-oxo-2,3-dihydro-1H-indole-5-sulfonic acid amide], the IC50 is 9.6 µM in experiment [1] and greater than 100 µM in experiment [2].
Turning to `CC(=O)c1ccc2c(c1)C(=Cc1[nH]c3ccccc3c1C)C(=O)N2` [IN-006, 5-Acetyl-3-(3-methyl-1H-indol-2-ylmethylene)-1,3-dihydro-indol-2-one], the inhibition at 100 µM in experiment [1] came out at 27%. The IC50 in experiment [2] is > 100 µM and 30.8 µM.
For `O=C1Nc2ccc(C(=O)O)cc2/C1=C/c1cc2ccccc2[nH]1` [IN-010, 3-(1H-Indol-2-ylmethylene)-2-oxo-2,3-dihydro-1H-indole-5-carboxylic acid], the IC50 in experiment [1] is 3.4 µM; in experiment [2], greater than 100 µM.
Consider `O=C1Nc2ccccc2/C1=C/c1cc2ccccc2[nH]1` [IN-012, 3-(1H-Indol-2-ylmethylene)-1,3-dihydro-indol-2-one], for which, in experiment [1], the inhibition at 100 µM was found to be 5.1%. This compound gave an IC50 in experiment [2] greater than 100 µM.
Turning to `Cc1c(/C=C2\C(=O)Nc3ccc(Br)cc32)[nH]c2ccccc12` [IN-018, 5-Bromo-3-(3-methyl-1H-indol-2-ylmethylene)-1,3-dihydro-indol-2-one], in experiment [1], the inhibition at 100 µM amounted to 62%. For the same compound, the IC50 in experiment [2] is 17.8 µM and > 100 µM.
For the compound `Cc1c(/C=C2\C(=O)Nc3ccc(C(=O)O)cc32)[nH]c2ccccc12` [IN-005, 3-(3-Methyl-1H-indol-2-ylmethylene)-2-oxo-2,3-dihydro-1H-indole-5-carboxylic acid], the IC50 in experiment [1] worked out at 0.22 µM; in experiment [2] it was 8.2 µM.
As for `Cc1c(/C=C2\C(=O)Nc3ccc(Cl)cc32)[nH]c2ccccc12` [IN-017, 5-Chloro-3-(3-methyl-1H-indol-2-ylmethylene)-1,3-dihydro-indol-2-one], the inhibition at 100 µM in experiment [1] is -12%. For the same compound, the IC50 in experiment [2] was greater than 100 µM.
Turning to `Nc1ccc2c(c1)/C(=C/c1cc3ccccc3[nH]1)C(=O)N2` [IN-009, 5-Amino-3-(1H-indol-2-ylmethylene)-1,3-dihydro-indol-2-one], the 50% inhibitory concentration (IC50) in experiment [1] was 0.68 µM; in experiment [2], greater than 100 µM.
Consider `Cc1cccc2c1/C(=C/c1[nH]c3ccccc3c1C)C(=O)N2` [IN-019, 4-Methyl-3-(3-methyl-1H-indol-2-ylmethylene)-1,3-dihydro-indol-2-one], for which the inhibition at 100 µM in experiment [1] was -36%. The same compound yielded an IC50 in experiment [2] greater than 100 µM.
On to `Cc1ccc2c(c1)/C(=C/c1[nH]c3ccccc3c1C)C(=O)N2` [IN-001, 5-Methyl-3-(3-methyl-1H-indol-2-ylmethylene)-1,3-dihydro-indol-2-one], for which the inhibition at 100 µM in experiment [1] was -16%. The compound further returned an IC50 in experiment [2] greater than 100 µM.
